Here are results for one molecule from patent US6958359B1, “Vanadium compounds as anti-angiogenic agents” (Parker Hughes Institute, priority 2000, dated 2005).

Assay [1] concerns CAMs of growing chick embryos. The assay can be described thus: Chick embryo chorioallantoic membrane (CAM) assay, inhibition of angiogenesis. In kind it is in vivo, chick (white Leghorn chicken). The following applies: for Avascular Zone: assessed 48 hours after implantation. The method, then: Inhibition of embryonic angiogenesis was determined using a bioassay system involving CAMs of growing chick embryos, as previously described (Nguyen et al, Microvascular Research, 47:31, 1994; Auerbach et al, Developmental Biology, 41:391, 1974). Fertilized white Leghorn chicken eggs were received at day 3 of incubation from the University of Minnesota Poultry Research Center, St. Paul, Minn. The following procedures took place in a sterile laminar flow hood. The eggs were wiped down with 70% isoprpyl alcohol and allowed to air dry. The eggs were wiped with Betadine and placed in a horizontal position for approximately 5 minutes and allowed to dry. The eggs were cracked and placed into sterile 100×20 mm^2 Petri dishes (Fischer, Itasca, Ill.) and transferred to a 37° C. humidified incubator (1.5% CO2). […] Louis, Mo.) were prepared by pipetting 10 μl of the compound, using a positive displacement pipette, onto sterile Teflon™ PFA Petri dishes (VWR, Chicago, Ill.) and drying in a vacuum desiccator at ambient temperature. […] The eggs were returned to a humidified 1.5% CO2/37° C. incubator.
Inhibition of angiogenesis was assessed 48 hours after implantation by measuring the avascular one in the CAM beneath the pellet, followed by photographic documentation of the CAM. Pellets containing 200 μg suramin (Calbiochem, La Jolla, Calif.) served as a positive control. The methylcellulose disk alone with no added compounds served as a negative control. Significant inhibition of angiogenesis was defined as the presence of an avascular zone of at least 3 mm in diameter around the methylcellulose disk.

For the next assay, the system named is Zebra fish embryos. The assay can be described thus: Zebrafish embryo model system, incubation of dechorionated two-cell stage embryos with drug. It counts as in vivo, Danio rerio. How it is done:
ZF eggs were removed from their chorions by mild digestion in 1% Trypsin-EDTA (Sigma, St.Louis, Mo.) for 10 minutes at 28.5° C. (Standard temperature—ST), washed three times in “egg water” and twice in “embryonic medium” (EM), according to recommendations (Westerfield, The Zebrafish Book, Supra). The dechorionated two-cell stage cleaving eggs were transferred to the 24-well plastic cell culture plates (Costar, Cambridge, Mass.) filled with EM. Dechorionated embryos (10-12 per well) were exposed to the drugs at a constant ST for 0.5-24 hours. The final volume of the media in each well was 500 μL. The compound was tested at concentrations ranging from 10 μM to 4 mM. First dissolved in DMSO, it was then diluted serially with the incubation medium. The final concentration of DMSO in the wells was 1.2%. […]
(§1) Observations of cell division and development of the ZF embryos were carried out using a SMZ-10A stereo microscope (Nicon, Melville, N.Y.), once every 30 minutes within the first 3 hours of incubation and at 6, 12 and 24 hours, as well. […] The absorbance of each well was measured in a microplate reader (Labsystems) at 540 nm and a reference wavelength of 690 nm. The percent survival and the IC50 values were calculated using Graphpad Prism software version 2.0 (Graphpad Software, Inc., San Diego, Calif.), as described previously. […]

The next assay has as its system two-cell stage ZF eggs. The assay can be described thus: Zebrafish embryo microinjection into cytoplasm of two-cell stage eggs. In kind it is in vivo, Danio rerio. How it is done:
Microinjections were performed with the help of a SMZ-10A stereo microscope (Nicon, Melville, N.Y.) and transjector 5246 (Eppendorf Scientific Inc, Westbury, N.Y. 11590) at RT. The eggs in chorions were restrained in agar grooves filled with EM, and the drug containing solution was introduced into the cytoplasm of one of the blastomeres of the two-cell stage eggs through a micropipette with a splinted sharp tip of 2-3 μm in diameter. All microinjections were performed under visual control. Drugs for injection were dissolved in Hank's Balanced Salt Saline (Gibco, Rockville, Md.) with 10% DMSO. The volume of the solution injected into each blastomere was approximately […]. For every drug, 40-50 embryos were injected in 30 minutes of one series of experiment. After the treatment the embryos were transferred back to ST and studied as above.
as §1

Assay [2] deals with breast cancer cell line BT-20. The assay is described as follows: MTT cytotoxicity assay. It counts as cell-based, human. The following applies: BT-20, MTT, 48 hours; read-out: IC50 inhibition of proliferation. How it is done: (§2) Observations of cell division and development of the ZF embryos were carried out using a SMZ-10A stereo microscope (Nicon, Melville, N.Y.), once every 30 minutes within the first 3 hours of incubation and at 6, 12 and 24 hours, as well. […] The stereo microscope was fitted with a specially designed transparent heating tray in order to keep embryos at ST during observations. Pictures of the embryos were taken with a H-III Photomicrographic System (Nicon, Melville, N.Y.) using Ektachrome 64X film (Kodak, Rochester, N.Y.). Cytotoxicity MTF Assays The cytotoxicity of [VCp2(acac)](CF3SO3) against human cancer cell lines was performed as described previously (Ghosh et al, Clinc Canc Res, 6:1536, 2000) using the MTT (3-[4,5-dimethylthiazol-2-yl]-2,5-diphenyl tetrazolium bromide) assay (Boehringer Mannheim Corp., Indianapolis, Ind.). Briefly, exponentially growing tumor cells were seeded into a 96-well plate at a density of 2.5×10^4 cells/well and incubated [VCp2(acac)](CF3SO3) or 0.1% DMSO in PBS concentrations ranging from 0.1 to 250 μM. Following incubation with drug for 48 hours at 37° C., to each well, 10 μl of MTT (0.5 mg/ml final concentration) was added and the plates were incubated at 37° C. for 4 hours to allow MTT to form formazan crystals by reacting with metabolically active cells. The formazan crystals were solubilized overnight at 37° C. in a solution containing 10% SDS in 0.01 M HCl. The absorbance of each well was measured in a microplate reader (Labsystems) at 540 nm and a reference wavelength of 690 nm. The percent survival and the IC50 values were calculated using Graphpad Prism software version 2.0 (Graphpad Software, Inc., San Diego, Calif.), as described previously. Ghosh et al, Clinc Canc Res, 6:1536, 2000.

Assay [3] concerns breast cancer cell line MDA-MB-231. The assay is described as follows: MTT cytotoxicity assay. In kind it is cell-based, human. The following applies: MDA-MB-231, MTT, 48 hours; read-out: IC50 inhibition of proliferation. How it is done: as §2
Background: Formazan colour is commonly taken as a measure of viable cells.

The test system of assay [4] is glioblastoma cell line U373. The assay is described as follows: MTT cytotoxicity assay. It counts as cell-based, human. The following applies: 48 hours, read-out: IC50 inhibition of proliferation. How it is done:
as §2

Assay [5] relates to BT-20 breast cancer cells. The assay can be described thus: Immunocytochemistry and confocal microscopic analysis of mitotic spindles. The following applies: BT-20 cells, α-tubulin and DNA staining, confocal laser scanning microscopy. It counts as cell-based, human. The method, then: At the appropriate time points coverslips containing BT-20 cells were fixed in−20° C. methanol for 15 minutes followed by 15 minutes incubation in phosphate buffered saline +0.1% Triton X-100 (PBS-Tx). Coverslips were next incubated with a primary antibody recognizing α-tubulin (Sigma, St.Louis Mo.) for 40 minutes in a humidified chamber at 37° C. Coverslips were washed for 15 minutes in PBS-Tx followed by a 40 minutes incubation with a fluorescently labeled secondary antibody (Jackson Immunoresearch, West Grove, Pa.). The coverslips were again rinsed in PBS-Tx and incubated with 5 μM Toto-3 (Molecular Probes, Eugene Oreg.) for 20 minutes to label the DNA. Coverslips were immediately inverted onto slides in Vectashield (Vector Labs, Burlingame, […].) to prevent photobleaching, sealed with nail polish and stored at 4° C.
Slides were examined using a Bio-Rad MRC-1024 Laser Scanning Confocal Microscope mounted on a Nikon Eclipse E800 upright microscope with high numerical aperture objectives. Slides were examined to determine the percentage of cells in interphase vs. mitosis and representative images were taken. Digital data was processed using Lasersharp (Bio-Rad, Hercules, Calif.) and Photoshop (Adobe Systems, Mountain View, Calif.) software and printed on a Pictrography printer (Fuji Photo Elmsford, N.Y.)

The structures appear in SMILES notation.

Turning to `CC(=O)C=C(C)[O-].O=S(=O)([O-])C(F)(F)F.[V+4].c1cc[cH-]c1.c1cc[cH-]c1` [VDacac, Vanadocene acetylacetonato monotriflate], the “Avascular Zone” value is 7.0 ± 1.5 mm^2 in assay [1] (VDacac 1 (mg) pellet on CAM), 38.4 ± 16.6 mm^2 in assay [1] (VDacac 10 (mg) pellet on CAM) and 92.4 ± 24.9 mm^2 in assay [1] (VDacac 100 (mg) pellet on CAM). Besides, in assay [1] (methylcellulose disks, doses ranging from 1 μg to 100 μg, 4-6 day old chick embryos), the “effect on angiogenesis in CAM” value was “rapidly inhibited angiogenesis and produced within one hour a large avascular zone”. In addition, the “effect on cell division / embryonic development” value was “cell division block at the 8-16 cell stage of embryonic development followed by total cell fusion and developmental arrest” in the assay on Zebra fish embryos (0.6 mM in embryonic medium, 28.5° C.); “cell proliferation continued but was abnormal” with Zebra fish embryos (concentrations lower than 0.6 mM, within 120 minutes of incubation). The “anti-proliferative effect after microinjection” value with two-cell stage ZF eggs (1 pmol/embryo microinjected) is “formation of a blastocoel-like cavity in the blastoderm of late blastulae and early gastrulae and disrupted further gastrulation”; in the assay with two-cell stage ZF eggs (40 pmols/cell microinjected), “slowed down cell division and resulted in deterioration of the cell localization pattern and developmental block”. The IC50 was 25.1 µM in assay [2], 9.6 µM in assay [3] and 35.7 µM in assay [4]. The mitotic spindle organization entry in assay [5] was “aberrant monopolar mitotic structures”.
